Patent publication US7456225B1, “Liver protection compounds of the cyclohexenone type from Antrodia camphorata” (Golden Biotechnology Corporation, priority 2007, dated 2008)
Marks after values point to notes of the source that are not given here.

Legend:
[1] = test system: CCl4-induced liver fibrosis in rats; test: Histological evaluation of liver fibrosis (Masson's trichrome, 0-4 scale); assay type: in vivo, Sprague-Dawley (SD) rats; settings: for Liver fibrosis score: 0-4 scale, CCl4-treated rats, 8 weeks; for Liver fibrosis +, counts of pathological rats: level 1, portal fibrosis without septa; for Liver fibrosis ++, counts of pathological rats: level 2, incomplete septa; for Liver fibrosis +++, counts of pathological rats: level 3, intact septal fibrosis and bridging; for Liver fibrosis ++++, counts of pathological rats: level 4, complete thick septa, definite cirrhosis
Method: (§1) The animal model was performed with five-week-old Sprague-Dawley (SD) rats purchased from BioLasco Taiwan Co., Ltd. Healthy rats weighing 220-270 g were chosen for experiment after observing for 2 weeks in the laboratory animal room. The rats were randomly divided into 6 groups (12 rats/group): normal (gp. A); control groups including model control (gp. B) and positive control (gp. C, animals receiving silymarin); treatment groups including animals receiving 300 mg/kg of cyclohexenone (gp. D), 1000 mg/kg of cyclohexenone (gp. E), and 3000 mg/kg of cyclohexenone (gp. F), as indicated in Table 1. Only normal group was not poisoned with CCl4. The body weights were recorded to calculate the dosage. […] It helps to remove toxins from liver cells by either neutralizing the toxicity of toxic compounds or competing with the binding sites in liver. It is a potent antioxidant, protects the liver from free radicals. It has been widely studied for treating various types of liver injury in animals and clinical trials. The beneficial effects on liver protection have made silymarin a good medicine for liver diseases and a drug in positive control group for the animal model of liver injury.
(§2) Rats in normal group (group A) were fed with corn oil (Sigma chemical co.) by means of stomach tubes. Carbon tetrachloride (Shimakyu, Osaka, Japan) was administered to groups B to F via stomach tubes twice weekly (every Tuesday and Thursday afternoon) for 8 weeks, at a dose of 2 ml/kg of body weight, diluted with corn oil. Silymarin was prepared with saline in an amount of 200 mg/kg of body weight and was fed to rats of group C via a stomach tube. Cyclohexenone prepared from example 1 was mixed with saline, and fed in the amounts of 300 mg/kg, 1000 mg/kg and 3000 mg/kg of body weight to rats of group D to F via stomach tubes. The total feeding volume was estimated in the ratio of 10 ml/kg of body weight to groups C to F five days a week (every morning) for 8 weeks. The body weights of rats and the amounts of food intake in rats for each group were shown in FIG. 1 and FIG. 2, respectively.
The pathological changes of the liver surface were examined with naked eyes when the liver was taken out from rats, and then tissue sections were made. Half of each liver lobe was stored at −80° C. for antioxidant enzyme assay to follow up. The rest of liver tissues were fixed in 10% formalin for one week, embedded in paraffin cut into 2 μm sections, and stained with Hematoxyline-eosin (H&E) to visualize the lipid deposition, inflammation, cell necrosis and fibrosis, or stained with Masson's trichromic solution to visualize extracellular matrix and collagen fibers for liver fibrosis development. The pathological changes of liver injury were evaluated under light microscope (Opticphot-2, Nikon, Tokyo, Japan) after stained with the abovementioned solution.
Liver fibrosis was evaluated semiquantitatively according to the scoring methods from Gabriele et al. (Gabriele, B. 1997. Silymarin retards collagen accumulation in early and advanced biliary fibrosis secondary to complete bile duct obliteration in rats. Hepatology 26: 643-649) and Wang et al. (Wang, G. S., Eriksson, L. C., Xia, L., Olsson, J. and Stal, P. 1999. Dietary iron overload inhibits carbon tetrachloride-induced promotion in chemical hepatocarcinogenesis: effects on cell proliferation, apoptosis, and antioxidation. J. Hepatol. 30(4):689-98.). Fibrosis was staged on a 0-4 scale: level 0, no fibrosis, normal liver tissue; level 1, proliferation of collagen, portal fibrosis without septa (proliferation of radiating fiber in central vein or periportal region); level 2, incomplete septa between central vein and periportal region (septa without bridging); level 3, intact septal fibrosis and bridging, many nodules in liver, the septa is thin; and level 4, complete thick septa, definite cirrhosis. The results are shown in FIG. 3 to FIG. 5, and Table 3.

[2] = test system: CCl4 treated, liver injury model animals; test: Antioxidant enzymes in liver (GSH, GSHPx, catalase, SOD); assay type: in vivo, Sprague-Dawley (SD) rats; settings: CCl4-treated rats, 8 weeks
Method: as §1, §2
The liver stored at −80° C. as described above was immersed in PBS buffer (phosphate buffered saline solution, pH 7.4) containing 0.16 mg/ml heparin. Red blood cells were removed from the tissue. Liver was prepared as 1.0 g tissue/10 mL buffer homogenates in fresh, chilled 50 mM phosphate, 1 mM EDTA (pH 6-7) buffer using a Polytron homogenizer (setting 5, PT 10 probe, Brinkmann Instruments, Westbury, N.Y.) for one min. The solution was centrifuged at 10,000×g for 15 min at 4° C. Protein concentration was determined with a BCA protein assay kit (Pierce, Ill., USA) at 550 nm using an enzyme linked immunosorbent assay (ELISA) reader (MAX ELISA Reader, Quant, Bio-Tek Instrument, Vermont, USA). Commercial kits of glutathione (GSH), glutathione peroxidase (GSHPx), catalase (CAT), superoxide dismutase (SOD) (Glutathione Assay Kit, Cat No. 703002; Glutathione Peroxidase Assay Kit, Cat No. 703102; Catalase Assay Kit, Cat No. 707002; Superoxide Dismutase Assay Kit, Cat No. 706002) were purchased from Cayman Chemical Company (MI.USA) and assayed by reading at 405 nm, 340 nm, 540 nm and 450 nm using an ELISA reader. Deprotein step was carried out for all the assays mention above except SOD assay. Proteins were precipitated by mixing with equal volume of 10% metaphosphoric acid (w/v), vortex-mixed evenly, centrifuged at 2,000×g for 2 min. The supernatant was removed for enzyme assay. All values are expressed as mean ±SD, which were evaluated using One-way Analysis of Variance. Those with significant differences were further tested with the Least Significant Difference Test (LSD) or Student t-test to compare cyclohexenone treatment groups and normal groups, positive control and model groups. P<0.05 was selected as criterion for statistical significance in all cases.

## COC1=C(OC)C(O)C(C/C=C(\C)CC/C=C(\C)CCC=C(C)C)C(C)C1=O (centres unmarked) [Cyclohexenone from Antrodia camphorata, 4-hydroxy-2,3-dimethoxy-6-methyl-5(3,7,11-trimethyl-dodeca-2,6,10-trienyl)-cyclohex-2-enone]
[1]; cyclohexenone 300 mg/kg
  Liver fibrosis score: 1.8*^a
  Liver fibrosis +, counts of pathological rats: 6
  Liver fibrosis ++, counts of pathological rats: 4
  Liver fibrosis +++, counts of pathological rats: 1
  Liver fibrosis ++++, counts of pathological rats: 1
[1]; cyclohexenone 300 mg/kg, listed as cyclohexenone from Antrodia camphorata
  Liver fibrosis score: 1.8
[1]; cyclohexenone 1000 mg/kg
  Liver fibrosis score: 2.0*^a
  Liver fibrosis +, counts of pathological rats: 1
  Liver fibrosis ++, counts of pathological rats: 4
  Liver fibrosis +++, counts of pathological rats: 3
  Liver fibrosis ++++, counts of pathological rats: 1
[1]; cyclohexenone 3000 mg/kg
  Liver fibrosis score: 2.5*
  Liver fibrosis +, counts of pathological rats: 2
  Liver fibrosis ++, counts of pathological rats: 4
  Liver fibrosis +++, counts of pathological rats: 3
  Liver fibrosis ++++, counts of pathological rats: 2
[1]; level 0, no fibrosis, cyclohexenone 1000 mg/kg
  Liver fibrosis −, counts of pathological rats: 2
[2]; cyclohexenone 300 mg/kg
  Catalase: 9.1 ± 1.0 U/mg protein
  GSH (Glutathione activity): 30.3 ± 3.2 uM/mg protein
  GSHPx (glutathione peroxidase activity): 9.6 ± 1.7 nmol/min/mL
  SOD: 0.47 U/mg protein
[2]; cyclohexenone 1000 mg/kg
  Catalase: 10.1 ± 1.4 U/mg protein
  GSH (Glutathione activity): 25.2 ± 1.8*^a uM/mg protein
  GSHPx (glutathione peroxidase activity): 11.2 ± 3.4 nmol/min/mL
  SOD: 0.52 ± 0.28 U/mg protein
[2]; cyclohexenone 3000 mg/kg
  Catalase: 9.8 ± 0.9 U/mg protein
  GSH (Glutathione activity): 26.7 ± 4.3*^a uM/mg protein
  GSHPx (glutathione peroxidase activity): 10.6 ± 3.1 nmol/min/mL
  SOD: 0.73 ± 0.23 U/mg protein
